Experimental data taken from patent US20110039902A1, “PROCESS FOR PREPARING A CRYSTALLINE FORM COMPOUND OF 3-BENZYL-2-METHYL-2,3,3a,4,5,6,7,7a-OCTAHYDROBENZO[d]ISOXAZOL-4-ONE” (ABIOGEN PHARMA S.P.A., priority 2008, published 2011).

Assay: stability of BTG 1640 hydrochloride salt to temperature
Type: physicochemical
Settings: at temperatures above 30° C.

In the case of `CN1OC2CCCC(=O)C2C1Cc1ccccc1.Cl` (stereo not shown) [hydrochloride salt of BTG 1640], the stability to temperature is reported as “unstable”.
